Measurements: paper PMC5858560 (Toxicology and applied pharmacology, 2011)
Blank lines part the entries; values can stand above or below the compound they belong to.

What was measured:
human iPSC-CMs [1] = assay: ATP depletion; assay type: cell-based; conditions: for attenuation of sunitinib-mediated ATP depletion: 3 h pretreatment with 1 or 2 mM, then 8 to 31 µM sunitinib for 24 h; for TC50 based on dose–response data for ATP depletion: human iPSC-CMs, 24 h treatment; for depletion of ATP: 31 µM sunitinib
human iPSC-CMs [2] = assay: LDH release in iCell cardiomyocytes; assay type: cell-based
human iPSC-CMs [3] = assay: Caspase 3/7 cleavage; assay type: cell-based; conditions: for maximal attenuation of caspase 3/7 cleavage: 23 µM sunitinib 24 h
human iPSC-CMs [4] = assay: GSH oxidation; assay type: cell-based
pACC-S79, pAMPK-T172 = assay: Western blot of AMPK/ACC signaling in iCell cardiomyocytes; assay type: cell-based, human; conditions: iPSC-CMs; for phosphorylation status of AMPKα-Thr172 and ACC-Ser79: 1 or 2 mM for 3 h
human iPSC-CMs [5] = assay: Microelectrode array; assay type: cell-based; conditions: MEA; for change of beat rate from baseline: up to 2 mM
Nav1.5 channel = Nav1.5 channel (Homo sapiens, UniProt Q14524); assay: PatchXpress Nav1.5 channel assay in CHL-Nav1.5 cells; assay type: cell-based; conditions: read-out: IC50 of Nav1.5 channel inhibition
human iPSC-CMs [6] = assay: Cytotoxicity dose response; assay type: cell-based; conditions: for concentration without cytotoxicity (no ATP depletion or LDH release): 4 to 250 µM tested, 24 h
AMPK-alpha1 = AMPK-alpha1 (Homo sapiens, UniProt Q13131); assay: KINOMEscan; assay type: binding; conditions: read-out: % Inhibition AMBIT, AMP_K-alpha1
AMPK-alpha2 = AMPK-alpha2 (Homo sapiens, UniProt P54646); assay: KINOMEscan; assay type: binding; conditions: read-out: % Inhibition AMBIT, AMPK-alpha2
AURORA B KINASE = AURORA B KINASE (Homo sapiens, UniProt Q96GD4); assay: KINOMEscan; assay type: binding; conditions: read-out: % Inhibition AMBIT, AURORA B KINASE
AURORA C KINASE = AURORA C KINASE (Homo sapiens, UniProt Q9UQB9); assay: KINOMEscan; assay type: binding; conditions: read-out: % Inhibition AMBIT, AURORA C KINASE
CDK7 = CDK7 (Homo sapiens, UniProt P50613); assay: KINOMEscan; assay type: binding; conditions: read-out: % Inhibition AMBIT, CDK7
PDGFR-alpha = PDGFR-alpha (Homo sapiens, UniProt P16234); assay: KINOMEscan; assay type: binding; conditions: read-out: % Inhibition AMBIT, PDGFR-alpha
PDGFR-beta = PDGFR-beta (Homo sapiens, UniProt P09619); assay: KINOMEscan; assay type: binding; conditions: read-out: % Inhibition AMBIT, PDGFR-beta
PLK4 = PLK4 (Homo sapiens, UniProt O00444); assay: KINOMEscan; assay type: binding; conditions: read-out: % Inhibition AMBIT, PLK4
FLT1 = FLT1 (Homo sapiens, UniProt P17948); assay: KINOMEscan; assay type: binding; conditions: read-out: % Inhibition AMBIT, FLT1
FLT4 = FLT4 (Homo sapiens, UniProt P35916); assay: KINOMEscan; assay type: binding; conditions: read-out: % Inhibition AMBIT, FLT4
STK11 = STK11 (Homo sapiens, UniProt Q15831); assay: KINOMEscan; assay type: binding; conditions: read-out: % Inhibition AMBIT, STK11
RPS6KA1 (Kin. Dom.1) = RPS6KA1 (Kin. Dom.1) (Homo sapiens, UniProt Q15418); assay: KINOMEscan; assay type: binding; conditions: read-out: % Inhibition AMBIT, RPS6KA1 (Kin. Dom.1)
RPS6KA2 (Kin. Dom.1) = RPS6KA2 (Kin. Dom.1) (Homo sapiens, UniProt Q15349); assay: KINOMEscan; assay type: binding; conditions: read-out: % Inhibition AMBIT, RPS6KA2 (Kin. Dom.1)
RPS6KA4 (Kin. Dom.1) = RPS6KA4 (Kin. Dom.1) (Homo sapiens, UniProt O75676); assay: KINOMEscan; assay type: binding; conditions: read-out: % Inhibition AMBIT, RPS6KA4 (Kin. Dom.1)
RPS6KA4 (Kin. Dom.2) = RPS6KA4 (Kin. Dom.2) (Homo sapiens, UniProt O75676); assay: KINOMEscan; assay type: binding; conditions: read-out: % Inhibition AMBIT, RPS6KA4 (Kin. Dom.2)
RPS6KA6 (Kin. Dom.1) = RPS6KA6 (Kin. Dom.1) (Homo sapiens, UniProt Q9UK32); assay: KINOMEscan; assay type: binding; conditions: read-out: % Inhibition AMBIT, RPS6KA6 (Kin. Dom.1)
ROCK2 = ROCK2 (Homo sapiens, UniProt O75116); assay: KINOMEscan; assay type: binding; conditions: read-out: % Inhibition AMBIT, ROCK2
AKT3 = AKT3 (Homo sapiens, UniProt Q9Y243); assay: KINOMEscan; assay type: binding; conditions: read-out: % Inhibition AMBIT, AKT3
AURORA A KINASE = AURORA A KINASE (Homo sapiens, UniProt O14965); assay: KINOMEscan; assay type: binding; conditions: read-out: % Inhibition AMBIT, AURORA A KINASE
BRAF = BRAF (Homo sapiens, UniProt P15056); assay: KINOMEscan; assay type: binding; conditions: read-out: % Inhibition AMBIT, BRAF
DMPK = DMPK (Homo sapiens, UniProt Q09013); assay: KINOMEscan; assay type: binding; conditions: read-out: % Inhibition AMBIT, DMPK
ERBB2 = ERBB2 (Homo sapiens, UniProt P04626); assay: KINOMEscan; assay type: binding; conditions: read-out: % Inhibition AMBIT, ERBB2
ERBB4 = ERBB4 (Homo sapiens, UniProt Q15303); assay: KINOMEscan; assay type: binding; conditions: read-out: % Inhibition AMBIT, ERBB4
GSK3A = GSK3A (Homo sapiens, UniProt P49840); assay: KINOMEscan; assay type: binding; conditions: read-out: % Inhibition AMBIT, GSK3A
GSK3B = GSK3B (Homo sapiens, UniProt P49841); assay: KINOMEscan; assay type: binding; conditions: read-out: % Inhibition AMBIT, GSK3B
MAP3K5 (ASK1) = MAP3K5 (ASK1) (Homo sapiens, UniProt Q99683); assay: KINOMEscan; assay type: binding; conditions: read-out: % Inhibition AMBIT, MAP3K5 (ASK1)
MAPK/ERK2 = MAPK/ERK2 (Homo sapiens, UniProt P28482); assay: KINOMEscan; assay type: binding; conditions: read-out: % Inhibition AMBIT, MAPK/ERK2
PIM1 = PIM1 (Homo sapiens, UniProt P11309); assay: KINOMEscan; assay type: binding; conditions: read-out: % Inhibition AMBIT, PIM1
PIM2 = PIM2 (Homo sapiens, UniProt Q9P1W9); assay: KINOMEscan; assay type: binding; conditions: read-out: % Inhibition AMBIT, PIM2
PLK1 = PLK1 (Homo sapiens, UniProt P53350); assay: KINOMEscan; assay type: binding; conditions: read-out: % Inhibition AMBIT, PLK1
PLK3 = PLK3 (Homo sapiens, UniProt Q9H4B4); assay: KINOMEscan; assay type: binding; conditions: read-out: % Inhibition AMBIT, PLK3
RAF = RAF (Homo sapiens, UniProt P04049); assay: KINOMEscan; assay type: binding; conditions: read-out: % Inhibition AMBIT, RAF
RPS6KA6 (Kin. Dom.2) = RPS6KA6 (Kin. Dom.2) (Homo sapiens, UniProt Q9UK32); assay: KINOMEscan; assay type: binding; conditions: read-out: % Inhibition AMBIT, RPS6KA6 (Kin. Dom.2)
RSK1/2/4 = assay: 10 µM AMBIT screen; assay type: binding
317 kinases = conditions: at 0.1 µM; ref Karaman et al., 2008; cited from earlier work
RSK1 = conditions: read-out: IC50 RSK1; kinase activity assay; ref Hasinoff et al., 2008; cited from earlier work
[7] = 23 µM sunitinib, 24 h, iPSC-CMs
[8] = 31 µM sunitinib, 24 h, iPSC-CMs

Sequence of PIM1 (P11309 whole entry): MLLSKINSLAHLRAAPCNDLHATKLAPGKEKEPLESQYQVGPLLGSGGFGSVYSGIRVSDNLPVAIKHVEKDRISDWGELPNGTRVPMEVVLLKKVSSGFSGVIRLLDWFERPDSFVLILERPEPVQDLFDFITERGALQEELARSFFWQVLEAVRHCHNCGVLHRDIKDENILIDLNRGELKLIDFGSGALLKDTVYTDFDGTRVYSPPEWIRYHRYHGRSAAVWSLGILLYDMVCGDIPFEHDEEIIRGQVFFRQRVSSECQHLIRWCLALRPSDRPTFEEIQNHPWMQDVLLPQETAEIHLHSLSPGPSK
Sequence of Nav1.5 channel (Q14524 whole entry): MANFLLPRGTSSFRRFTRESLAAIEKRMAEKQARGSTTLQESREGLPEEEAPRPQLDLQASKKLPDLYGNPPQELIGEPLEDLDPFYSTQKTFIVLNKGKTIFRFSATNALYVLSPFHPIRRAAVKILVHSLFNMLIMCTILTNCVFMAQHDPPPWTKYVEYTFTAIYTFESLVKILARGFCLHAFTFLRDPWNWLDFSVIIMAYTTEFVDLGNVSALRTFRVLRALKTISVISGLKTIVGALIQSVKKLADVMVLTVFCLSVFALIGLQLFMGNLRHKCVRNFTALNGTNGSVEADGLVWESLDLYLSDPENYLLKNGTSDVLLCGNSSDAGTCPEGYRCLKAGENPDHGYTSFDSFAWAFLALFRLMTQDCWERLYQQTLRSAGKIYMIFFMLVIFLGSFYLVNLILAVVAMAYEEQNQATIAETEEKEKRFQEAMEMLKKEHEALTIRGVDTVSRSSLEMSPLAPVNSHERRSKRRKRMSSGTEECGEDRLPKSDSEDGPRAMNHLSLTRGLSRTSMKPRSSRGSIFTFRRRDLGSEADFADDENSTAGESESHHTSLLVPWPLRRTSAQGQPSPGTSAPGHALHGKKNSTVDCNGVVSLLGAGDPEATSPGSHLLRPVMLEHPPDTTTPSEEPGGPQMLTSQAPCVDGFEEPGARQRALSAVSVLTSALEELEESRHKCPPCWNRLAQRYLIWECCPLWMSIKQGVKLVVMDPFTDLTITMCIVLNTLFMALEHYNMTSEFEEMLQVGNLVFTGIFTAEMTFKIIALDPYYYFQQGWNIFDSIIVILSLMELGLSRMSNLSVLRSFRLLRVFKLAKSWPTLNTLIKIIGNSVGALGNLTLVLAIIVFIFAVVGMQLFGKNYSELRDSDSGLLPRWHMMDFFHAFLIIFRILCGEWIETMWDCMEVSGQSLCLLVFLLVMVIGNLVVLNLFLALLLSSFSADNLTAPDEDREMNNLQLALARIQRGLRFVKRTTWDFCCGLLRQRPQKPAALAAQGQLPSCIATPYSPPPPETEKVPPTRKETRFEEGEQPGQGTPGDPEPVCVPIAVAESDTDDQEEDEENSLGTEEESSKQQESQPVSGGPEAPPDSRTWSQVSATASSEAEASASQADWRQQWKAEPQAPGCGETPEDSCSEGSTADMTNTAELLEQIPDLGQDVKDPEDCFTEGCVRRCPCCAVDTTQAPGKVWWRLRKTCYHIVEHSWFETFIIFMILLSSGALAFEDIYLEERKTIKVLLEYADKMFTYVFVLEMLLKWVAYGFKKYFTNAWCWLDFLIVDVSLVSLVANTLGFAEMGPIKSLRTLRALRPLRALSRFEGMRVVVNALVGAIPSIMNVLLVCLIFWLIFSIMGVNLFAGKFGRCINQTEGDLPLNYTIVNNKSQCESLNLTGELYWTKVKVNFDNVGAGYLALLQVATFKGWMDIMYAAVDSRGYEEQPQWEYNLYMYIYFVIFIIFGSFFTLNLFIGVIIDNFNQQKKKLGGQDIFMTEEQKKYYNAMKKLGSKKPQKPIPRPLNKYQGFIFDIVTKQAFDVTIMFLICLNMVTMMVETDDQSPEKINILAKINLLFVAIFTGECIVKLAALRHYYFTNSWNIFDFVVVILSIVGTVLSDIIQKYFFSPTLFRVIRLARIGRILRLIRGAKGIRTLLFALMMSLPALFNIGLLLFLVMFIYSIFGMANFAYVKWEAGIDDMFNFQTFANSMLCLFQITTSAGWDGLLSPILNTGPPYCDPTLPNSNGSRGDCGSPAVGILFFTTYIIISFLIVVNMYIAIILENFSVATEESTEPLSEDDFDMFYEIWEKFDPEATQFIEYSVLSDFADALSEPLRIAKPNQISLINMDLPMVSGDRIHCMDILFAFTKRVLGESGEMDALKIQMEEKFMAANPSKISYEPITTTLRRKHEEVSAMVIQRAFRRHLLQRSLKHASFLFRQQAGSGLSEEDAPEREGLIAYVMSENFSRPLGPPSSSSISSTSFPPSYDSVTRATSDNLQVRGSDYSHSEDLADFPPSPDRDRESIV
Sequence of AMPK-alpha1 (Q13131 whole entry): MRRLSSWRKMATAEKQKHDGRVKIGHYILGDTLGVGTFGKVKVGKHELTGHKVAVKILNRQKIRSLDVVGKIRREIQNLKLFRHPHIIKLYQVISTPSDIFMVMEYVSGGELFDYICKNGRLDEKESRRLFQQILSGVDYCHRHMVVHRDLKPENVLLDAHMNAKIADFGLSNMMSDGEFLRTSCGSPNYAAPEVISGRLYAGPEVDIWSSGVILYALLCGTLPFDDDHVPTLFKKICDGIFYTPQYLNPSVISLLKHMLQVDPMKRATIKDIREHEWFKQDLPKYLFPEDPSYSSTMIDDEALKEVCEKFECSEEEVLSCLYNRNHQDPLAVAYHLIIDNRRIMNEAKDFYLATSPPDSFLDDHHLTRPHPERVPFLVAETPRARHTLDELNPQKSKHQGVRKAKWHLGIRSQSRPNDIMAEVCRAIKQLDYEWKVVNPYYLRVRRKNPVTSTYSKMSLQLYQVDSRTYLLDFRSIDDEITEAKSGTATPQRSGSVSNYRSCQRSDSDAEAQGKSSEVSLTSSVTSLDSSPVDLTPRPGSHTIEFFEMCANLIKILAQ
Sequence of RPS6KA4 (Kin. Dom.2) (O75676 411-772 limits assumed): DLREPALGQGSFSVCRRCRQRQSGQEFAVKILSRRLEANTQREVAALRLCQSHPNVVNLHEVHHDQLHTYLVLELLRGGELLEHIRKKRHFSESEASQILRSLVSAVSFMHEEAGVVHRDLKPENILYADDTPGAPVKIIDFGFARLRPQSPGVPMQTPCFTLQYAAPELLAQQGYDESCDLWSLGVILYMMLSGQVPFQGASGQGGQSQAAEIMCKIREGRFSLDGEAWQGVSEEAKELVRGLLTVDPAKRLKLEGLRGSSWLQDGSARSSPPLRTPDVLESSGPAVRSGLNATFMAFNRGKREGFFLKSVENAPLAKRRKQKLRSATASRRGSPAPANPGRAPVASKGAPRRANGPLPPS
Sequence of AURORA A KINASE (O14965 whole entry): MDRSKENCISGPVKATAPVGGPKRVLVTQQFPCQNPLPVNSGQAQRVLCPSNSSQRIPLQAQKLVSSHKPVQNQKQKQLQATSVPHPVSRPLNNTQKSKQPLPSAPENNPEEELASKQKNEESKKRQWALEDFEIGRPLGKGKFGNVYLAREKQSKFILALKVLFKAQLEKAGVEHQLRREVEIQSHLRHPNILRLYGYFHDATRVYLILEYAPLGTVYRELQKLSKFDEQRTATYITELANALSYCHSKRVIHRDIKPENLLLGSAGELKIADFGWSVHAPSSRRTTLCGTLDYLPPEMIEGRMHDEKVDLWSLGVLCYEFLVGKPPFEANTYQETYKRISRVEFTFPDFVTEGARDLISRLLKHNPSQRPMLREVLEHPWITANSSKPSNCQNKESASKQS
Sequence of ERBB4 (Q15303 26-1308): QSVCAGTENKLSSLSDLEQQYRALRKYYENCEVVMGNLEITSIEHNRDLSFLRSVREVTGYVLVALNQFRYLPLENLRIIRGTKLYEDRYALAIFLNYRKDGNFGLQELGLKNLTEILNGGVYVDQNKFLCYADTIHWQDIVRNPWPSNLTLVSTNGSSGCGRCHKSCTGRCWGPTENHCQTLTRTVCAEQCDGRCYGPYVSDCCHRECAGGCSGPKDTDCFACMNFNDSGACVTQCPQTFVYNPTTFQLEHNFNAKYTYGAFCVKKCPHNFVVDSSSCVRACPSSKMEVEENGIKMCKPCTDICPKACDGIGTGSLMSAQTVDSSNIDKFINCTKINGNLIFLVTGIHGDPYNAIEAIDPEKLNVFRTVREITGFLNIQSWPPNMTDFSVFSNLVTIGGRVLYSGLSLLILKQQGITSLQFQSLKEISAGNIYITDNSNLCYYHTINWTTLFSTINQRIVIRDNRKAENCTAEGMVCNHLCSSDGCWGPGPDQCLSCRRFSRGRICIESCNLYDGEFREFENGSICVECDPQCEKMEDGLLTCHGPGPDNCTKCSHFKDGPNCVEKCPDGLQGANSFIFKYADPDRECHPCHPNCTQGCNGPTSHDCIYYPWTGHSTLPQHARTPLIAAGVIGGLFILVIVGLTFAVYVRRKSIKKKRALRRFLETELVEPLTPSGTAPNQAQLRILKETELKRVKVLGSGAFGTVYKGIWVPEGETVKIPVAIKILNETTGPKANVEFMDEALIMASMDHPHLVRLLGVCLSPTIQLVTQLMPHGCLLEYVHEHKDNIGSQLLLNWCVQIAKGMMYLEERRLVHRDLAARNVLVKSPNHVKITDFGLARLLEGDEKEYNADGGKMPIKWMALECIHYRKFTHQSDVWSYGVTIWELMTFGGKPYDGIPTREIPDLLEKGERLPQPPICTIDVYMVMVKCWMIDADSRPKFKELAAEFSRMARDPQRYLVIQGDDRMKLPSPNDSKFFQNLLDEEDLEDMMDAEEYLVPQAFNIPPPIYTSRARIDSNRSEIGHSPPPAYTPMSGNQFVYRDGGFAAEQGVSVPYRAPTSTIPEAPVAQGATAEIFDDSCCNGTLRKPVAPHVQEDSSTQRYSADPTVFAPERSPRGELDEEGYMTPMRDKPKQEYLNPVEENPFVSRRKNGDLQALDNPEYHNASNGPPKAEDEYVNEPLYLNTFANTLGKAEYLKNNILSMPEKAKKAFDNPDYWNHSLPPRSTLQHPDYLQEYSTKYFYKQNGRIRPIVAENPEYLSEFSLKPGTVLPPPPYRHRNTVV

SMILES: NC(=O)c1ncn([C@@H]2O[C@H](CO)[C@@H](O)[C@H]2O)c1N [AICAR, aminoimidazole carboxamide ribonucleotide]
- attenuation of sunitinib-mediated ATP depletion (human iPSC-CMs [1]): Neither AICAR (Fig. 3A) nor metformin (Fig. 3E) attenuated
- reduction of LDH release (human iPSC-CMs [2]; 1 mM pretreatment 3 h, 23 or 31 µM sunitinib 24 h): 80%
- maximal attenuation of caspase 3/7 cleavage (human iPSC-CMs [3]; 2 mM pretreatment 3 h): 108%
- attenuation of oxidized GSH (human iPSC-CMs [4]; 1 mM pretreatment 3 h, 31 µM sunitinib 24 h): 14%
- phosphorylation status of AMPKα-Thr172 and ACC-Ser79 (pACC-S79, pAMPK-T172): activated AMPK signaling
- change of beat rate from baseline (human iPSC-CMs [5]): ≤ 1%

SMILES: COCCNCCCn1c(C(=O)CF)c(-c2ccc(C)cc2)c2c(N)ncnc21 [RSK FMK-MEA, fluoromethylketone methoxyethylamine]
- TC50 based on dose–response data for ATP depletion (human iPSC-CMs [1]): 250 µM
- concentration with irregular (arrhythmic) beats (human iPSC-CMs [5]; 15 min at each concentration): 3000 nM
- amplitude of the Na+-peak (human iPSC-CMs [5]; serially increasing additions): dose-dependent reduction in the amplitude of the Na^+-peak
- fPDc (field-potential duration corrected by beat rate, Fridericia) (human iPSC-CMs [5]; serially increasing additions): dose-dependent prolongation of fPDc
- IC50 (Nav1.5 channel): 56.8 µM
- concentration without cytotoxicity (no ATP depletion or LDH release) (human iPSC-CMs [6]): up to 62 µM
- concentration without cytotoxicity (no ATP depletion or LDH release) (human iPSC-CMs [6]; listed as RSK-FMK-MEA): below 250 µM

- change of beat rate from baseline (human iPSC-CMs [5]): ≤ 1%
SMILES: CN(C)C(=N)N=C(N)N [metformin]
- attenuation of sunitinib-mediated ATP depletion (human iPSC-CMs [1]): Neither AICAR (Fig. 3A) nor metformin (Fig. 3E) attenuated
- maximal attenuation of LDH release (human iPSC-CMs [2]; 1 mM pretreatment 3 h, 23 µM sunitinib 24 h): 90%
- maximal attenuation of caspase 3/7 cleavage (human iPSC-CMs [3]; 1 mM pretreatment 3 h): 107%
- reduction in oxidation of GSH (human iPSC-CMs [4]; 2 mM pretreatment 3 h, 23 µM sunitinib 24 h): 35%
- phosphorylation status of AMPKα-Thr172 and ACC-Ser79 (pACC-S79, pAMPK-T172): activated AMPK signaling

- inhibition at 10 µM (AMPK-alpha1): 100%
- inhibition at 10 µM (AMPK-alpha2): 99%
- inhibition at 10 µM (AURORA B KINASE): 100%
- inhibition at 10 µM (AURORA C KINASE): 100%
- inhibition at 10 µM (CDK7): 100%
- inhibition at 10 µM (PDGFR-alpha): 100%
- inhibition at 10 µM (PDGFR-beta): 100%
- inhibition at 10 µM (PLK4): 100%
- inhibition at 10 µM (FLT1): 100%
- inhibition at 10 µM (FLT4): 100%
- inhibition at 10 µM (STK11): 100%
- inhibition at 10 µM (RPS6KA1 (Kin. Dom.1)): 100%
- inhibition at 10 µM (RPS6KA2 (Kin. Dom.1)): 100%
- inhibition at 10 µM (RPS6KA4 (Kin. Dom.1)): 100%
- inhibition at 10 µM (RPS6KA4 (Kin. Dom.2)): 99%
- inhibition at 10 µM (RPS6KA6 (Kin. Dom.1)): 97%
- inhibition at 10 µM (ROCK2): 97%
- inhibition at 10 µM (AKT3): < 50%
- inhibition at 10 µM (AURORA A KINASE): < 50%
- inhibition at 10 µM (BRAF): < 50%
- inhibition at 10 µM (DMPK): < 50%
- inhibition at 10 µM (ERBB2): < 50%
- inhibition at 10 µM (ERBB4): < 50%
- inhibition at 10 µM (GSK3A): < 50%
- inhibition at 10 µM (GSK3B): < 50%
- inhibition at 10 µM (MAP3K5 (ASK1)): < 50%
- inhibition at 10 µM (MAPK/ERK2): < 50%
- inhibition at 10 µM (PIM1): < 50%
- inhibition at 10 µM (PIM2): < 50%
- inhibition at 10 µM (PLK1): < 50%
- inhibition at 10 µM (PLK3): < 50%
- inhibition at 10 µM (RAF): < 50%
- inhibition at 10 µM (RPS6KA6 (Kin. Dom.2)): < 50%
SMILES: CCN(CC)CCNC(=O)c1c(C)[nH]c(/C=C2\C(=O)Nc3ccc(F)cc32)c1C [sunitinib, Sunitinib]
- ATP depleted compared to vehicle (human iPSC-CMs [1]; [7]): greater than 60%
- depletion of ATP (human iPSC-CMs [1]; 24 h, iPSC-CMs): ~100%
- depletion of ATP (human iPSC-CMs [1]; by 4.5 h, iPSC-CMs (unpublished results)): 80%
- TC50 based on dose–response data for ATP depletion (human iPSC-CMs [1]): 16.7 µM
- increase in LDH release compared to vehicle (human iPSC-CMs [2]; [7]): 300%
- release of LDH (human iPSC-CMs [2]; [8]): ~100%
- cleavage of caspase 3/7 (human iPSC-CMs [3]; [8]): ~100%
- GSH oxidized compared to vehicle (human iPSC-CMs [4]; [7]): 67%
- oxidation of GSH (human iPSC-CMs [4]; [8]): ~100%
- inhibition of phosphorylation of AMPK's downstream target ACC-Ser79 (pACC-S79, pAMPK-T172; 15 µM for 2 h): inhibited AMPK
- phosphorylation status of ACC-S79 (pACC-S79, pAMPK-T172; 15.6 µM, 2 h): decreased the phosphorylation status of ACC-S79
- amplitude of the Na+-peak (human iPSC-CMs [5]; serially increasing additions): dose-dependently reduced the amplitude of the Na^+-peak
- inhibition of RSK1/2/4 (RSK1/2/4): 100%
- IC50 of cardiotoxicity (loss of cellular ATP, oxidized glutathione, apoptosis) (human iPSC-CMs [6]): low micromolar range
- number of kinases bound of the 317 kinases tested (317 kinases): 57
- share of the 317 kinases tested that were bound (317 kinases): 18%
